The values that follow come from ChEMBL document CHEMBL1135753, “Characterization of orally active nonpeptide vasopressin V(2) receptor agonist. Synthesis and biological evaluation of both the (5R)- and (5S)-enantioisomers of 2-[1-(2-Chloro-4-pyrrolidin-1-yl-benzoyl)-2,3,4,5-tetrahydro-1H-1-benzazepin- 5-yl]-N-isopropylacetamide” (J Med Chem, 2002).

Each structure is given as a SMILES string.

Experiment [1] has as its target Vasopressin V2 receptor (Rattus norvegicus, UniProt Q00788). The experiment can be described thus: Binding affinity against Vasopressin V2 receptor was determined in Brattleboro rats.
Experiment [2] deals with T1, Vasopressin V2 receptor (Homo sapiens, UniProt P30518). The experiment can be described thus: Binding affinity against human Vasopressin V2 receptor expressed in HeLa cells was determined. Format: cell-based.
Experiment [3] concerns the target T1, Vasopressin V2 receptor. The experiment in a line: Percentage of maximal cAMP accumulation at a concentration of 10e-4 M was done in HeLa cells expressing the human Vasopressin V2 receptor. Format: functional, cell-based. In general terms: Changes in cAMP serve as a functional read-out for many G protein-coupled receptors.

T1 sequence (P30518 whole entry): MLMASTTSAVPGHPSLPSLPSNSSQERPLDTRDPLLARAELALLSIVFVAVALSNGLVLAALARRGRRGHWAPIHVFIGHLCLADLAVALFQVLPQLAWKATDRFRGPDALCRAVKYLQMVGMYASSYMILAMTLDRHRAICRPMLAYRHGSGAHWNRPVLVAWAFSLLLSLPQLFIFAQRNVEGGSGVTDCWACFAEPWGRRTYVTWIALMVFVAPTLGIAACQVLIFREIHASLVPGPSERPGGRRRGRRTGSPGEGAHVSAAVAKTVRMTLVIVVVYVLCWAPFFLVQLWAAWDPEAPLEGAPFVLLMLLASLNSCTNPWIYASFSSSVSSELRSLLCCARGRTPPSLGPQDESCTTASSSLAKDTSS
Vasopressin V2 receptor (Rattus norvegicus, UniProt Q00788), sequence (Q00788 whole entry): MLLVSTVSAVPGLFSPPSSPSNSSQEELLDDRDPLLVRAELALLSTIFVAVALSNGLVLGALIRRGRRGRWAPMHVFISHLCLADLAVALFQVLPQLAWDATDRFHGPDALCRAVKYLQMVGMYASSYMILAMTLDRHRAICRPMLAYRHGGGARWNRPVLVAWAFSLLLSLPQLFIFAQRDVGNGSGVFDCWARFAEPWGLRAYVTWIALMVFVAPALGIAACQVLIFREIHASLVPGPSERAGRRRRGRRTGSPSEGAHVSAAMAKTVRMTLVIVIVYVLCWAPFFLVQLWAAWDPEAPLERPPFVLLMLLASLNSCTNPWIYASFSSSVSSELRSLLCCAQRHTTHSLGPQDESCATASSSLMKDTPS

The term IC50 denotes the concentration that gives 50% inhibition. High values mean lower potency, low ones higher potency. As to `CC(C)NC(=O)C[C@@H]1CCCN(C(=O)c2ccc(N3CCCC3)cc2Cl)c2ccccc21`, the results for the IC50 in experiment [1] and in experiment [2] were 390 nM and 980 nM, respectively. The compound also had an Accumulation in experiment [3] of 22%.
With `CC(C)NC(=O)C[C@H]1CCCN(C(=O)c2ccc(N3CCCC3)cc2Cl)c2ccccc21`, the values for the IC50 in experiment [1] and in experiment [2] were 230 nM and 330 nM, respectively.
